The test system of assay [1] is prostate cancer cell lines (VCaP, LNCaP, 22RV1, LNCaP-AR, PC3, DU145). The assay is described as follows: long-term survival assay (14 days, crystal violet). The assay is classed as cell-based, human. The conditions noted are these: Homo sapiens, 336 h; range across AR positive (VCaP, LNCaP, 22RV1, LNCaP-AR) and AR-negative (PC3, DU145) cell lines, two weeks; read-out: growth inhibitory IC50. The protocol: Single cell suspensions were seeded into 96-well plates at a density of 1,000-30,000 cells per well. Long-term survival was determined after 14 days of drug incubation. Viable cells were fixed with 4% formaldehyde and subsequently stained with 1% crystal violet. IC50 was calculated using GraphPad Prism.

The test system of assay [2] is MDA-PCa-146-12 AR-positive PDX. The assay is described as follows: MDA-PCa-146-12 patient-derived xenograft. It counts as in vivo, mouse. The conditions noted are these: 30 mg/kg. The protocol: The University of Texas M.D. Anderson Cancer Center (MDACC) patient-derived xenografts (PDX) series has been previously described^62-64. PDXs were derived from men with CRPC undergoing palliative resections using described protocols^65,66. MDA-PCa-146-12 and 146-10 PDX were derived from a patient initially diagnosed with Gleason 3+4=7 prostate adenocarcinoma with an initial PSA of 10.7 ng/ml. […] PDXs were maintained in male SCID mice by surgically implanting 2 mm^3 tumors coated with 100% Matrigel to both flanks of mice. Once tumors reached 100-200 mm^3 in size, mice were randomized and divided into different treatment groups receiving either 30 mg/kg ESK981 or vehicle (ORA-PLUS) by oral gavage 5 days per week.

In another assay the test system is DU145 tumors. The assay is described as follows: DU145 xenograft tumor model. The assay is classed as in vivo, mouse. The conditions noted are these: 30 mg/kg. The protocol: Four- to six-week old male CB17 severe combined immunodeficiency (SCID) mice were procured from the University of Michigan breeding colony. Subcutaneous tumors were established at both sides of the dorsal flank of mice. Tumors were measured at least biweekly using digital calipers following the formula (π/6) (L×W2), where L=length and W=width of the tumor. At the end of the studies, mice were sacrificed and tumors extracted and weighed. The University of Michigan University Committee on the Use and Care of Animals (UCUCA) approved all in vivo studies. For the VCaP castration-resistant tumor model, 3×10^6 VCaP cells were injected subcutaneously into the dorsal flank on both sides of the mice in serum-free medium with 50% Matrigel (BD Biosciences). Once tumors reached a palpable stage (˜200 mm^3), tumor-bearing mice were castrated. Once tumors grew back to the pre-castration size, mice were randomized and treated with either 30 mg/kg, 60 mg/kg ESK981, or vehicle (ORA-PLUS) by oral gavage 5 days per week. For the DU145 xenograft tumor model, 1×10^6 DU145 cells were injected subcutaneously into the dorsal flank on both sides of the mice in serum-free medium with 50% Matrigel. When tumors reached ˜100 mm^3, tumor-bearing mice were randomized and treated with 30 mg/kg ESK981 or vehicle (ORA-PLUS) by oral gavage 5 days per week.

For assay [3], the system named is LC3-II in prostate cancer cell lines. Kind of assay: LC3 lipidation western blot. The assay is classed as cell-based, human. The protocol:
Cell lysates were harvested in Pierce RIPA Lysis buffer (Thermo Scientific) containing protease inhibitor cocktail tablets (Roche) and phosphatase inhibitor cocktail (Millipore). Protein concentration was measured using the DC Protein Assay (Bio-Rad) to ensure an equal amount of protein was loaded onto a gel. The denatured lysates were separated on NuPage 4-12% Bis-Tris Midi Protein gels (Novex) and transferred to 0.45-μm PVDF transfer membrane (Immobilon) using a TransBlot Turbo dry transfer machine (Bio-Rad). The membrane was incubated in blocking buffer (5% non-fat dry milk, Tris-buffered saline with 0.1% Tween 20) for 1 hour at room temperature. The membrane was then incubated with the listed antibodies for 1 hour at room temperature, followed by overnight incubation at 4° C. Chemiluminescent detection using ECL Prime (Amersham) and HyBlot CL autoradiography film (Denville Scientific) was used to visualize the blots. Antibodies used in the immunoblotting assays were against ATG5 (Cat No. 12994S, Cell Signaling Technology), ATG7 (Cat No. 8558S, Cell Signaling Technology), ULK1 (Cat No. 8054S, Cell Signaling Technology), Beclin1 (Cat No. 4122S, Cell Signaling Technology), FIP200 (Cat No. 12436S, Cell Signaling Technology), LC3A/B (Cat No. 127415, Cell Signaling Technology), PIKfyve (Cat No. AF7885, R&D Systems), and GAPDH (Cat No. 3683S, Cell Signaling Technology).

The next assay deals with PC3 and DU145 cells. Kind of assay: autophagic flux detection (GFP-LC3-RFP-LC3ΔG probe). The conditions noted are these: PC3 or DU145 cells, 24 hours. The assay is classed as cell-based, human. The protocol:
For autophagic flux detection, 10,000 cells were plated in 96-well plates and incubated with various compounds in complete medium for 24 hours. GFP and RFP fluorescence intensities were measured on a TECAN M1000 plate reader.

Assay [4] concerns CXCL10 in VCaP, PC3 and DU145 cells. Kind of assay: CXCL10 mRNA by qPCR in the presence of IFNγ. The assay is classed as cell-based, human. The conditions noted are these: PC3 and DU145, 24 hours. The protocol: Total RNA was extracted from cells or tissue using the miRNeasy mini kit (Qiagen), and cDNA was synthesized from 1 μg total RNA using the High Capacity cDNA Reverse Transcription Kit (Applied Biosystems). qPCR was performed using Fast SYBR Green Master Mix (Applied Biosystems) on the ViiA7 Real-Time PCR System (Applied Biosystems). The target mRNA expression was quantified using the ΔΔCt method and normalized to GAPDH expression. The primer sequences used for the SYBR green qPCR are as follows: […]

The mark [5] stands for this setting: oral gavage 5 days per week, SCID mice.

The structures appear in SMILES notation.

Consider `CC(C)Cn1c2ccc(Nc3ncccn3)cc2c2c3c(c4c(c21)CCc1nn(C)cc1-4)C(=O)NC3` [ESK981, 13-isobutyl-4-methyl-10-(pyrimidin-2-ylamino)-1,2,4,7,8,13-hexahydro-6H-indazolo[5,4-a]pyrrolo[3,4-c]carbazol-6-one], for which, in assay [1], the IC50 lay in the range of 35 to 192 nM. The tumor weights result (in assay [2]; with DU145 tumors) was “significant decreases in tumor weights” in each case. In addition, the tumor growth result (in assay [2] (setting [5]); in the assay on DU145 tumors (setting [5])) was “Significant inhibition of tumor growth” in each case. In addition, in assay [3] (VCaP cells, 300 nM), the “time to evidence of increase in LC3-II” value is reported as “within three hours”. In addition, the “total level of LC3 lipidation” value in assay [3] (numerous prostate cancer cell lines, 24 hours, dose-dependent) was “increase in the total level of LC3 lipidation”. Further, the “autophagic flux (GFP/RFP ratio)” value in the assay on PC3 and DU145 cells was “low autophagic flux”. In addition, in assay [4], the “expression of CXCL10 in the presence of IFNγ” value is reported as “enhance expression of CXCL10”.

These data come from patent US20230364084A1, “METHODS FOR PREVENTING OR TREATING CONDITIONS RELATED TO PIKFYVE ACTIVITY” (The Regents of the University of Michigan, priority 2020, published 2023).
